By IC50 is commonly meant the concentration at which inhibition is half-maximal.

Our source for the IC50 values is patent publication US9670227B2, “Thienopyrimidine derivatives, a process for their preparation and pharmaceutical compositions containing them” (LES LABORATOIRES SERVIER, priority 2013, dated 2017).

Like-named read-outs stand apart in the source and are kept apart here.

The target of test [1] is Mcl-1 protein (UniProtKB primary accession number: Q07820) (Homo sapiens, UniProt Q07820). Kind of test: Inhibition of Mcl-1 by fluorescence polarisation, Method 1. Format: binding. The following applies: read-out: IC50 (M) Mcl-1 FP. The method in brief: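 Compounds were tested as 11-point serial dilutions at 5% final DMSO against 5 nM Mcl-1 with 1 nM fluorescein-labelled ligand in 10 mM HEPES, 150 mM NaCl, 0.05% Tween 20, pH 7.4. Relative binding potency was read by fluorescence polarisation.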
Sequence of Mcl-1 protein (Q07820 whole entry): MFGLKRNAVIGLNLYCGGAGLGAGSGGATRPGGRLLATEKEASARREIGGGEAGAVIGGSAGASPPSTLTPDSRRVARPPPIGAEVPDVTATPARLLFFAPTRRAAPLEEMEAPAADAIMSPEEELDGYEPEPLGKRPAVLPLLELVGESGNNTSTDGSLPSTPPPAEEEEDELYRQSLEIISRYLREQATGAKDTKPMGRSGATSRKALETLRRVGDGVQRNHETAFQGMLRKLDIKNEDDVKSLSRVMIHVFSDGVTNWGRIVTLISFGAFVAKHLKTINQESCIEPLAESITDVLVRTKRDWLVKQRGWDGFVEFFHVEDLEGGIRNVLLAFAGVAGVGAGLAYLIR
(In general: In fluorescence polarisation assays a small probe gives low polarisation when free and higher when bound to something large.)

Test [2] relates to H929 multiple myeloma tumour line. Kind of test: In vitro cytotoxicity, Microculture Tetrazolium Assay. Format: cell-based. The following applies: H929 cells, 48 hours exposure, MTT, read-out: IC50 (μM) MTT H929. As for the experimental part:
The cytotoxicity studies were carried out on the H929 multiple myeloma tumour line.
The cells are distributed onto microplates and exposed to the test compounds for 48 hours.

[3] abbreviates: fluorescence polarisation, Method 1, or Method 2.
Where [4] appears, read: fluorescence polarisation test, Method 2 values are underlined in the patent (underlining not visible here).

Consider `COc1ccccc1-c1nccc(COc2ccccc2CC(Oc2ncnc3sc(-c4ccc(OCc5ccnn5C)cc4)c(-c4ccc(OCCN5CCN(C)CC5)c(Cl)c4C)c23)C(=O)O)n1` [Example 771, (2R)-2-[((5Sa)-5-{3-chloro-2-methyl-4-[2-(4-methylpiperazin-1-yl)ethoxy]phenyl}-6-{4-[(1-methyl-1H-pyrazol-5-yl)methoxy]phenyl}thieno[2,3-d]pyrimidin-4-yl)oxy]-3-(2-{[2-(2-methoxyphenyl)pyrimidin-4-yl]methoxy}phenyl)propanoic acid], for which the IC50 in test [1] (setting [3]) stood at 1.04e-09 M; in test [2] (Homo sapiens, NCI-H929, 48 h), 0.019 µM.
Consider `Cc1c(-c2c(-c3ccco3)sc3ncnc(OC(Cc4ccccc4OCc4ccncc4)C(=O)O)c23)ccc(OCCN2CCN(C)CC2)c1Cl` [Example 258, (2R)-2-{[(5Sa)-5-{3-chloro-2-methyl-4-[2-(4-methylpiperazin-1-yl)ethoxy]phenyl}-6-(furan-2-yl)thieno[2,3-d]pyrimidin-4-yl]oxy}-3-[2-(pyridin-4-ylmethoxy)phenyl]propanoic acid], for which the IC50 in test [1] (setting [4]) came to 6.6e-09 M; in test [2] (Homo sapiens, NCI-H929, 48 h), 0.069 µM.
In the case of `Cc1c(-c2c(-c3ccc(OCC(F)(F)F)nc3)sc3ncnc(OC(Cc4ccccc4OCc4ccnn4CC(F)(F)F)C(=O)O)c23)ccc(OCCN2CCN(C)CC2)c1Cl` [Example 695, (2R)-2-[((5Sa)-5-{3-chloro-2-methyl-4-[2-(4-methylpiperazin-1-yl)ethoxy]phenyl}-6-[6-(2,2,2-trifluoroethoxy)pyridin-3-yl]thieno[2,3-d]pyrimidin-4-yl)oxy]-3-(2-{[1-(2,2,2-trifluoroethyl)-1H-pyrazol-5-yl]methoxy}phenyl)propanoic acid], the IC50 is 1.6e-08 M in test [1] (setting [3]) and 0.268 µM in test [2] (Homo sapiens, NCI-H929, 48 h).
For the compound `Cc1c(-c2c(-c3ccco3)sc3ncnc(OC(Cc4ccccc4OCc4cnc(N5CCCC5)nc4)C(=O)O)c23)ccc(OCCN2CCN(C)CC2)c1Cl` [Example 272, (2R)-2-{[(5Sa)-5-{3-chloro-2-methyl-4-[2-(4-methylpiperazin-1-yl)ethoxy]phenyl}-6-(furan-2-yl)thieno[2,3-d]pyrimidin-4-yl]oxy}-3-(2-{[2-(pyrrolidin-1-yl)pyrimidin-5-yl]methoxy}phenyl)propanoic acid], the IC50 in test [1] (setting [4]) worked out at 2.2e-08 M; in test [2] (Homo sapiens, NCI-H929, 48 h), 0.822 µM.
The matching figures for `COCCn1nncc1COc1ccccc1CC(Oc1ncnc2sc(-c3ccc(F)cc3)c(-c3ccc(OCCN4CCN(C)CC4)c(Cl)c3C)c12)C(=O)O` [Example 97, (2R)-2-{[(5Sa)-5-{3-chloro-2-methyl-4-[2-(4-methylpiperazin-1-yl)ethoxy]phenyl}-6-(4-fluorophenyl)thieno[2,3-d]pyrimidin-4-yl]oxy}-3-(2-{[1-(2-methoxyethyl)-1H-1,2,3-triazol-5-yl]methoxy}phenyl)propanoic acid]: 3.3e-09 M and 0.075 µM.
For the compound `COc1nccc(COc2ccccc2CC(Oc2ncnc3sc(-c4ccco4)c(-c4ccc(OCCN5CCN(C(C)C)CC5)c(Cl)c4C)c23)C(=O)O)n1` [Example 672, (2R)-2-{[(5Sa)-5-(3-chloro-2-methyl-4-{2-[4-(propan-2-yl)piperazin-1-yl]ethoxy}phenyl)-6-(furan-2-yl)thieno[2,3-d]pyrimidin-4-yl]oxy}-3-{2-[(2-methoxypyrimidin-4-yl)methoxy]phenyl}propanoic acid], the IC50 in test [1] (setting [3]) worked out at 4.3e-09 M; in test [2] (Homo sapiens, NCI-H929, 48 h), 0.019 µM.
Take `COc1ccccc1CC(Oc1ncnc2sc(-c3ccco3)c(-c3ccc(OCC4CN(C)CCO4)c(Cl)c3C)c12)C(=O)O` [Example 314, (2R)-2-{[(5Sa)-5-{3-chloro-2-methyl-4-[(4-methylmorpholin-2-yl)methoxy]phenyl}-6-(furan-2-yl)thieno[2,3-d]pyrimidin-4-yl]oxy}-3-(2-methoxyphenyl)propanoic acid]: the IC50 in test [1] (setting [4]) came out at 6.9e-09 M; in test [2] (Homo sapiens, NCI-H929, 48 h), 1.82 µM.
Take `COc1ccccc1CC(Oc1ncnc2sc(C3CCCO3)c(-c3ccc(OCCN4CCN(C)CC4)c(Cl)c3C)c12)C(=O)O` (single isomer, unassigned) [Example 591, (2R)-2-{[(5Sa)-5-{3-chloro-2-methyl-4-[2-(4-methylpiperazin-1-yl)ethoxy]phenyl}-6-((2R or S)-tetrahydrofuran-2-yl)thieno[2,3-d]pyrimidin-4-yl]oxy}-3-(2-methoxyphenyl)propanoic acid]: the IC50 turned out to be 6.5e-08 M in test [1] (setting [3]) and 1.67 µM in test [2] (Homo sapiens, NCI-H929, 48 h).
`COc1ccc(-c2sc3ncnc(OC(Cc4ccccc4OCc4ccnc(-c5ccccc5OC)n4)C(=O)O)c3c2-c2ccc(OCCN3CCN(C)CC3)c(Cl)c2C)cc1` (single isomer, unassigned) [Example 761]: the IC50 in test [1] (setting [3]) is 1.07e-07 M; in test [2] it was 0.148 µM.
For `CC#Cc1sc2ncnc(OC(Cc3ccccc3OC)C(=O)O)c2c1-c1ccc(OCCN2CCCCC2)c(Cl)c1C` [Example 469, (2R)-2-{[(5Sa)-5-{3-chloro-2-methyl-4-[2-(piperidin-1-yl)ethoxy]phenyl}-6-(prop-1-yn-1-yl)thieno[2,3-d]pyrimidin-4-yl]oxy}-3-(2-methoxyphenyl)propanoic acid], the IC50 is 1.5e-08 M in test [1] (setting [3]) and 3.06 µM in test [2] (Homo sapiens, NCI-H929, 48 h).
As for `Cc1c(-c2c(-c3ccco3)sc3ncnc(OC(Cc4ccccc4OCc4cocn4)C(=O)O)c23)ccc(OCCN2CCN(C)CC2)c1Cl` [Example 280, (2R)-2-{[(5Sa)-5-{3-chloro-2-methyl-4-[2-(4-methylpiperazin-1-yl)ethoxy]phenyl}-6-(furan-2-yl)thieno[2,3-d]pyrimidin-4-yl]oxy}-3-[2-(1,3-oxazol-4-ylmethoxy)phenyl]propanoic acid], the IC50 in test [1] (setting [4]) worked out at 4e-09 M; in test [2] (Homo sapiens, NCI-H929, 48 h) it was 0.071 µM.
The matching figures for `COc1nccc(COc2ccccc2CC(Oc2ncnc3sc(-c4ccc(Cl)o4)c(-c4ccc(OCCN5CCN(C)CC5)c(Cl)c4C)c23)C(=O)O)n1` [Example 369, (2R)-2-{[6-(5-chlorofuran-2-yl)-(5Sa)-5-{3-chloro-2-methyl-4-[2-(4-methylpiperazin-1-yl)ethoxy]phenyl}thieno[2,3-d]pyrimidin-4-yl]oxy}-3-{2-[(2-methoxypyrimidin-4-yl)methoxy]phenyl}propanoic acid]: 5.1e-09 M and 0.009 µM.
The corresponding values for `Cc1c(-c2c(-c3ccco3)sc3ncnc(OC(Cc4ccccc4OCc4ccccn4)C(=O)O)c23)ccc(OCCN2CCN(C)CC2)c1Cl` [Example 241, (2R)-2-{[(5Sa)-5-{3-chloro-2-methyl-4-[2-(4-methylpiperazin-1-yl)ethoxy]phenyl}-6-(furan-2-yl)thieno[2,3-d]pyrimidin-4-yl]oxy}-3-[2-(pyridin-2-ylmethoxy)phenyl]propanoic acid] are 5.5e-09 M and 0.074 µM.
As to `Cc1c(-c2c(-c3ccc(F)cc3)sc3ncnc(O[C@H](Cc4ccccc4OCc4cnccn4)C(=O)O)c23)ccc(OCC2CCCCN(C)C2)c1Cl` (stereo partly drawn) [Example 144, (2R)-2-{[(5Sa)-5-{3-chloro-2-methyl-4-[(1-methylazepan-3-yl)methoxy]phenyl}-6-(4-fluorophenyl)thieno[2,3-d]pyrimidin-4-yl]oxy}-3-[2-(pyrazin-2-ylmethoxy)phenyl]propanoic acid], the figures for the IC50 in test [1] (setting [4]) and in test [2] were 1.6e-08 M and 1.6 µM, respectively.
Regarding `COc1ccc(COc2ccc(-c3sc4ncnc(OC(Cc5ccccc5OCc5ccnc(-c6ccccc6OC)n5)C(=O)O)c4c3-c3ccc(OCCN4CCN(C)CC4)c(Cl)c3C)cc2)cc1` [Example 770, (2R)-2-[((5Sa)-5-{3-chloro-2-methyl-4-[2-(4-methylpiperazin-1-yl)ethoxy]phenyl}-6-{4-[(4-methoxybenzyl)oxy]phenyl}thieno[2,3-d]pyrimidin-4-yl)oxy]-3-(2-{[2-(2-methoxyphenyl)pyrimidin-4-yl]methoxy}phenyl)propanoic acid], the IC50 in test [1] (setting [3]) was found to be 1.01e-09 M; in test [2] (Homo sapiens, NCI-H929, 48 h), 0.01 µM.
Consider `Cc1cscc1-c1nccc(COc2ccccc2CC(Oc2ncnc3sc(-c4ccc(F)cc4)c(-c4ccc(OCCN5CCN(C)CC5)c(Cl)c4C)c23)C(=O)O)n1` [Example 124, (2R)-2-{[(5Sa)-5-{3-chloro-2-methyl-4-[2-(4-methylpiperazin-1-yl)ethoxy]phenyl}-6-(4-fluorophenyl)thieno[2,3-d]pyrimidin-4-yl]oxy}-3-(2-{[2-(4-methylthiophen-3-yl)pyrimidin-4-yl]methoxy}phenyl)propanoic acid], for which the IC50 was found to be 4.3e-09 M in test [1] (setting [4]) and 0.024 µM in test [2] (Homo sapiens, NCI-H929, 48 h).
Regarding `Cc1c(-c2c(-c3ccco3)sc3ncnc(OC(Cc4ccccc4O)C(=O)O)c23)ccc(OCCN2CCN(C)CC2)c1Cl` [Example 207, (2R)-2-{[-[(5Sa)-5-{3-chloro-2-methyl-4-[2-(4-methylpiperazin-1-yl)ethoxy]phenyl}-6-(furan-2-yl)thieno[2,3-d]pyrimidin-4-yl]oxy}-3-(2-hydroxyphenyl)propanoic acid], the IC50 in test [1] (setting [4]) worked out at 6.5e-09 M; in test [2] (Homo sapiens, NCI-H929, 48 h) it was 0.186 µM.
For `Cc1cc(COc2ccccc2CC(Oc2ncnc3sc(-c4ccco4)c(-c4ccc(OCCN5CCN(C)CC5)c(Cl)c4C)c23)C(=O)O)n(C)n1` [Example 225, (2R)-2-{[(5Sa)-5-{3-chloro-2-methyl-4-[2-(4-methylpiperazin-1-yl)ethoxy]phenyl}-6-(furan-2-yl)thieno[2,3-d]pyrimidin-4-yl]oxy}-3-{2-[(1,3-dimethyl-1H-pyrazol-5-yl)methoxy]phenyl}propanoic acid], the IC50 in test [1] (setting [4]) amounted to 8.4e-09 M; in test [2] (Homo sapiens, NCI-H929, 48 h) it was 0.105 µM.
For `CCc1sc2ncnc(OC(Cc3cccc4ccoc34)C(=O)O)c2c1-c1ccc(OCCN2CCN(C)CC2)c(Cl)c1C` [Example 461, (2R)-3-(1-benzofuran-7-yl)-2-[((5Sa)-5-{3-chloro-2-methyl-4-[2-(4-methylpiperazin-1-yl)ethoxy]phenyl}-6-ethylthieno[2,3-d]pyrimidin-4-yl)oxy]propanoic acid], the IC50 in test [1] (setting [3]) stood at 8.5e-08 M; in test [2] (Homo sapiens, NCI-H929, 48 h), 4.86 µM.
